Assay results reported in US20220050096A1, “ANALYTE-SENSITIVE PROBES AND CONTACT LENS FOR DIAGNOSIS OF OCULAR PATHOLOGIES” (University Of Maryland, Baltimore, priority 2020, published 2022).

Assay: Sodium-dependent intensity decays of SG in 20 mM MOPS buffer, 8 mM KCl
Type: physicochemical
Parameters: key to α1 / α2 / α3 / f1 / f2 / f3: fractional amplitudes (α) and intensity fractions (f); Σαi=1.0, Σfi=1.0
Experimental: Fluorescence Spectroscopic Measurements. Fluorescence intensities and intensity decays were measured using a Varian™ Eclipse 4 spectrofluorometer and a FluoTime300 instrument from PicoQuant™ (Berlin, Germany) and analyzed with the EasyTau™ software. The excitation source was a 473 nm laser diode with a repetition rate of 40 MHZ and a pulse width less than 100 ps. In other embodiments, the excitation source for SG-PL was at 495 nm from a Solea™ supercontinuum laser (PicoQuant™, Germany) and a 375 nm laser diode (PDL 375, PicoQuant™), a repetition rate of 40 MHz, and a pulse width less than 100 ps. Some intensity and lifetime measurements for SG-PL (as indicated) were performed using Alba V confocal fluorescence lifetime microscopy, FLIM (ISS, Urbana, Ill.), with excitation source of a 473 nm laser diode with a repetition rate of 40 MHz and a pulse width near 250 ps.
Intensity decays were measured at the emission maximum with the band of 10 to 20 nm, analyzed in terms of the multi-exponential model:
I(t)=Σαi exp(−t/ti) (equation 1)
where ti are the individual decay times and αi the initial time-zero amplitudes. The mean decay time can be represented in two ways. The average lifetime is given by:
where Σαi=1.0 and Σfi=1.0. The term fi=αi τi is proportional to the fractional contribution of each component to the total intensity decay. The term τi/Σαi τi is the fractional contribution to the steady state emission. Here, we use the amplitude-weighted lifetime given by
which is appropriate when the emission is from a single fluorophore with a changing quantum yield. For a single exponential decay, the lifetime is given by τ=1.0/(knr+Γ) and the quantum yield is given by Q=Γ/(knr+Γ) where knr is the sum of all non-radiative decay rates and Γ is the radiative decay rate. The value of Γ is determined by the molecular extinction coefficient that remains constant under most conditions. For a single type of fluorophore with a constant value of Γ the normalized αi values represent the molecular fraction of each decay time component. The value of αi and τi were determined by non-linear least squares fitting using PicoQuant™ software.
Three decay time components were required for the intensity decays. Fluorescence anisotropy decays were determined by individual measurements of the polarized intensity decays with corrections for the G-factor. Resolution of multi-exponential decays is not necessary. The average lifetime can be used as a single measurement. […]

[1] = NaCl 0 mM, 20 mM MOPS buffer 8 mM KCl
[2] = NaCl 5 mM, 20 mM MOPS buffer 8 mM KCl
[3] = NaCl 10 mM, 20 mM MOPS buffer 8 mM KCl
[4] = NaCl 20 mM, 20 mM MOPS buffer 8 mM KCl
[5] = NaCl 30 mM, 20 mM MOPS buffer 8 mM KCl
[6] = NaCl 50 mM, 20 mM MOPS buffer 8 mM KCl
[7] = NaCl 90 mM, 20 mM MOPS buffer 8 mM KCl
[8] = NaCl 150 mM, 20 mM MOPS buffer 8 mM KCl
[9] = NaCl 210 mM, 20 mM MOPS buffer 8 mM KCl

- f1 (NaCl 0 mM, MOPS buffer): 0.272
- f2 (NaCl 0 mM, MOPS buffer): 0.174
- f3 (NaCl 0 mM, MOPS buffer): 0.554
- α1 (NaCl 0 mM, MOPS buffer): 0.703
- α2 (NaCl 0 mM, MOPS buffer): 0.155
- α3 (NaCl 0 mM, MOPS buffer): 0.142
- τ1 (NaCl 0 mM, MOPS buffer): 0.36 ns
- τ2 (NaCl 0 mM, MOPS buffer): 1.03 ns
- τ3 (NaCl 0 mM, MOPS buffer): 3.59 ns
- τf (NaCl 0 mM, MOPS buffer): 2.27 ns
- τα (NaCl 0 mM, MOPS buffer): 0.92 ns
- f1 [1]: 0.272
- f2 [1]: 0.174
- f3 [1]: 0.554
- α1 [1]: 0.703
- α2 [1]: 0.155
- α3 [1]: 0.142
- τ1 [1]: 0.36 ns
- τ2 [1]: 1.03 ns
- τ3 [1]: 3.59 ns
- τf [1]: 2.27 ns
- τα [1]: 0.92 ns
- f1 (NaCl 5 mM, MOPS buffer): 0.111
- f2 (NaCl 5 mM, MOPS buffer): 0.223
- f3 (NaCl 5 mM, MOPS buffer): 0.666
- α1 (NaCl 5 mM, MOPS buffer): 0.439
- α2 (NaCl 5 mM, MOPS buffer): 0.244
- α3 (NaCl 5 mM, MOPS buffer): 0.317
- τ1 (NaCl 5 mM, MOPS buffer): 0.39 ns
- τ2 (NaCl 5 mM, MOPS buffer): 1.44 ns
- τ3 (NaCl 5 mM, MOPS buffer): 3.28 ns
- τf (NaCl 5 mM, MOPS buffer): 2.55 ns
- τα (NaCl 5 mM, MOPS buffer): 1.57 ns
- f1 [2]: 0.111
- f2 [2]: 0.223
- f3 [2]: 0.666
- α1 [2]: 0.439
- α2 [2]: 0.244
- α3 [2]: 0.317
- τ1 [2]: 0.39 ns
- τ2 [2]: 1.44 ns
- τ3 [2]: 3.28 ns
- τf [2]: 2.55 ns
- τα [2]: 1.57 ns
- f1 (NaCl 10 mM, MOPS buffer): 0.078
- f2 (NaCl 10 mM, MOPS buffer): 0.224
- f3 (NaCl 10 mM, MOPS buffer): 0.699
- α1 (NaCl 10 mM, MOPS buffer): 0.341
- α2 (NaCl 10 mM, MOPS buffer): 0.276
- α3 (NaCl 10 mM, MOPS buffer): 0.383
- τ1 (NaCl 10 mM, MOPS buffer): 0.40 ns
- τ2 (NaCl 10 mM, MOPS buffer): 1.43 ns
- τ3 (NaCl 10 mM, MOPS buffer): 3.22 ns
- τf (NaCl 10 mM, MOPS buffer): 2.60 ns
- τα (NaCl 10 mM, MOPS buffer): 1.77 ns
- f1 [3]: 0.078
- f2 [3]: 0.224
- f3 [3]: 0.699
- α1 [3]: 0.341
- α2 [3]: 0.276
- α3 [3]: 0.383
- τ1 [3]: 0.40 ns
- τ2 [3]: 1.43 ns
- τ3 [3]: 3.22 ns
- τf [3]: 2.60 ns
- τα [3]: 1.77 ns
- f1 (NaCl 20 mM, MOPS buffer): 0.094
- f2 (NaCl 20 mM, MOPS buffer): 0.355
- f3 (NaCl 20 mM, MOPS buffer): 0.551
- α1 (NaCl 20 mM, MOPS buffer): 0.324
- α2 (NaCl 20 mM, MOPS buffer): 0.353
- α3 (NaCl 20 mM, MOPS buffer): 0.323
- τ1 (NaCl 20 mM, MOPS buffer): 0.57 ns
- τ2 (NaCl 20 mM, MOPS buffer): 2.00 ns
- τ3 (NaCl 20 mM, MOPS buffer): 3.39 ns
- τf (NaCl 20 mM, MOPS buffer): 2.63 ns
- τα (NaCl 20 mM, MOPS buffer): 1.99 ns
- f1 [4]: 0.094
- f2 [4]: 0.355
- f3 [4]: 0.551
- α1 [4]: 0.324
- α2 [4]: 0.353
- α3 [4]: 0.323
- τ1 [4]: 0.57 ns
- τ2 [4]: 2.00 ns
- τ3 [4]: 3.39 ns
- τf [4]: 2.63 ns
- τα [4]: 1.99 ns
- f1 (NaCl 30 mM, MOPS buffer): 0.068
- f2 (NaCl 30 mM, MOPS buffer): 0.295
- f3 (NaCl 30 mM, MOPS buffer): 0.638
- α1 (NaCl 30 mM, MOPS buffer): 0.255
- α2 (NaCl 30 mM, MOPS buffer): 0.349
- α3 (NaCl 30 mM, MOPS buffer): 0.396
- τ1 (NaCl 30 mM, MOPS buffer): 0.54 ns
- τ2 (NaCl 30 mM, MOPS buffer): 1.72 ns
- τ3 (NaCl 30 mM, MOPS buffer): 3.27 ns
- τf (NaCl 30 mM, MOPS buffer): 2.63 ns
- τα (NaCl 30 mM, MOPS buffer): 2.03 ns
- f1 [5]: 0.068
- f2 [5]: 0.295
- f3 [5]: 0.638
- α1 [5]: 0.255
- α2 [5]: 0.349
- α3 [5]: 0.396
- τ1 [5]: 0.54 ns
- τ2 [5]: 1.72 ns
- τ3 [5]: 3.27 ns
- τf [5]: 2.63 ns
- τα [5]: 2.03 ns
- f1 (NaCl 50 mM, MOPS buffer): 0.081
- f2 (NaCl 50 mM, MOPS buffer): 0.349
- f3 (NaCl 50 mM, MOPS buffer): 0.570
- α1 (NaCl 50 mM, MOPS buffer): 0.259
- α2 (NaCl 50 mM, MOPS buffer): 0.380
- α3 (NaCl 50 mM, MOPS buffer): 0.361
- τ1 (NaCl 50 mM, MOPS buffer): 0.66 ns
- τ2 (NaCl 50 mM, MOPS buffer): 1.95 ns
- τ3 (NaCl 50 mM, MOPS buffer): 3.35 ns
- τf (NaCl 50 mM, MOPS buffer): 2.64 ns
- τα (NaCl 50 mM, MOPS buffer): 2.12 ns
- f1 [6]: 0.081
- f2 [6]: 0.349
- f3 [6]: 0.570
- α1 [6]: 0.259
- α2 [6]: 0.380
- α3 [6]: 0.361
- τ1 [6]: 0.66 ns
- τ2 [6]: 1.95 ns
- τ3 [6]: 3.35 ns
- τf [6]: 2.64 ns
- τα [6]: 2.12 ns
- f1 (NaCl 90 mM, MOPS buffer): 0.074
- f2 (NaCl 90 mM, MOPS buffer): 0.380
- f3 (NaCl 90 mM, MOPS buffer): 0.545
- α1 (NaCl 90 mM, MOPS buffer): 0.242
- α2 (NaCl 90 mM, MOPS buffer): 0.416
- α3 (NaCl 90 mM, MOPS buffer): 0.342
- τ1 (NaCl 90 mM, MOPS buffer): 0.64 ns
- τ2 (NaCl 90 mM, MOPS buffer): 1.93 ns
- τ3 (NaCl 90 mM, MOPS buffer): 3.36 ns
- τf (NaCl 90 mM, MOPS buffer): 2.61 ns
- τα (NaCl 90 mM, MOPS buffer): 2.11 ns
- f1 [7]: 0.074
- f2 [7]: 0.380
- f3 [7]: 0.545
- α1 [7]: 0.242
- α2 [7]: 0.416
- α3 [7]: 0.342
- τ1 [7]: 0.64 ns
- τ2 [7]: 1.93 ns
- τ3 [7]: 3.36 ns
- τf [7]: 2.61 ns
- τα [7]: 2.11 ns
- f1 (NaCl 150 mM, MOPS buffer): 0.116
- f2 (NaCl 150 mM, MOPS buffer): 0.699
- f3 (NaCl 150 mM, MOPS buffer): 0.185
- α1 (NaCl 150 mM, MOPS buffer): 0.305
- α2 (NaCl 150 mM, MOPS buffer): 0.605
- α3 (NaCl 150 mM, MOPS buffer): 0.091
- τ1 (NaCl 150 mM, MOPS buffer): 0.81 ns
- τ2 (NaCl 150 mM, MOPS buffer): 2.48 ns
- τ3 (NaCl 150 mM, MOPS buffer): 4.38 ns
- τf (NaCl 150 mM, MOPS buffer): 2.64 ns
- τα (NaCl 150 mM, MOPS buffer): 2.15 ns
- f1 [8]: 0.116
- f2 [8]: 0.699
- f3 [8]: 0.185
- α1 [8]: 0.305
- α2 [8]: 0.605
- α3 [8]: 0.091
- τ1 [8]: 0.81 ns
- τ2 [8]: 2.48 ns
- τ3 [8]: 4.38 ns
- τf [8]: 2.64 ns
- τα [8]: 2.15 ns
- f1 (NaCl 210 mM, MOPS buffer): 0.074
- f2 (NaCl 210 mM, MOPS buffer): 0.377
- f3 (NaCl 210 mM, MOPS buffer): 0.549
- α1 (NaCl 210 mM, MOPS buffer): 0.224
- α2 (NaCl 210 mM, MOPS buffer): 0.424
- α3 (NaCl 210 mM, MOPS buffer): 0.352
- τ1 (NaCl 210 mM, MOPS buffer): 0.70 ns
- τ2 (NaCl 210 mM, MOPS buffer): 1.88 ns
- τ3 (NaCl 210 mM, MOPS buffer): 3.29 ns
- τf (NaCl 210 mM, MOPS buffer): 2.57 ns
- τα (NaCl 210 mM, MOPS buffer): 2.12 ns
- f1 [9]: 0.074
- f2 [9]: 0.377
- f3 [9]: 0.549
- α1 [9]: 0.224
- α2 [9]: 0.424
- α3 [9]: 0.352
- τ1 [9]: 0.70 ns
- τ2 [9]: 1.88 ns
- τ3 [9]: 3.29 ns
- τf [9]: 2.57 ns
- τα [9]: 2.12 ns
Structure (SMILES): COc1cc(N2CCOCCOCCN(c3cc(OC)c(NC(=O)c4ccc(-c5c6cc(Cl)c(=O)cc-6oc6cc([O-])c(Cl)cc56)c(C(=O)[O-])c4)cc3OC)CCOCC2)c(OC)cc1NC(=O)c1ccc(-c2c3cc(Cl)c(=O)cc-3oc3cc([O-])c(Cl)cc23)c(C(=O)[O-])c1.C[N+](C)(C)C.C[N+](C)(C)C.C[N+](C)(C)C.C[N+](C)(C)C [SG]
